Laboratory results taken from the Deep4Chem optical property database.
Blank lines part the entries; values can stand above or below the compound they belong to.

Test: solvent given as SMILES

emission maximum (in ClCCl): 506 nm
SMILES: CCCCc1ccc2c(c1)c1ccc3cccc4c3c1c1c2c2cccc3ccc5c6cc(CCCC)ccc6c4c1c5c32

emission maximum (in CC#N): 391 nm
SMILES: c1ccc(-c2nc(-c3cccs3)[nH]c2-c2ccccc2)cc1

emission maximum (in CCCCCC): 548 nm
SMILES: CC(C)[Si](C#Cc1c2cc3ccccc3cc2c(C#C[Si](C(C)C)(C(C)C)C(C)C)c2nc3c(nc12)C1c2ccccc2C3c2ccccc21)(C(C)C)C(C)C

emission maximum (in ClCCl): 403 nm
SMILES: CC(C)(C)NC(=O)c1cccc2ccc3c4ccccc4c4ccccc4c3c12

emission maximum (in CS(C)=O): 412 nm
SMILES: Clc1ccccc1-c1nc2sc3ccccc3c2s1

emission maximum (in CC#N): 763 nm
emission maximum (in CCO): 750 nm
emission maximum (in CO): 753 nm
emission maximum (in ClC(Cl)Cl): 761 nm
SMILES: CCN(CC)c1ccc2c(c1)OC1=C(/C=C/C3=[N+](C)c4ccc5ccccc5c4C3(C)C)CCCC1=C2c1ccccc1C(=O)O

emission maximum (in C1CCCCC1): 390 nm
emission maximum (in CO): 400 nm
SMILES: C/C(=C\c1ccc(C)cc1)c1nc2ccccc2s1

emission maximum (in CN(C)C=O): 410 nm
SMILES: O=C([O-])c1c2ccccc2c(C(=O)[O-])c2ccccc12

emission maximum (in C1CCOC1): 596 nm
emission maximum (in CC#N): 620 nm
emission maximum (in CCO): 584 nm
emission maximum (in CO): 564 nm
emission maximum (in ClCCl): 588 nm
SMILES: O=C1C2=C(O[B-](F)(F)[n+]3c2ccc2ccccc23)c2cccc3c(N4CCOCC4)ccc1c23

emission maximum (in CS(C)=O): 491 nm
SMILES: Cc1ccc(N/C=C/C=[NH+]c2ccc(C)cc2)cc1

emission maximum (in CS(C)=O): 431 nm
SMILES: CSc1ccc(-c2nc3sc4ccccc4c3s2)cc1

emission maximum (in C1CCCCC1): 477 nm
emission maximum (in CC#N): 479 nm
emission maximum (in CO): 475 nm
emission maximum (in ClCCl): 479 nm
emission maximum (in O): 481 nm
SMILES: COc1ccccc1-c1nc(-c2ccccc2)c2ccccn12

emission maximum (in CS(C)=O): 337 nm
SMILES: O=C1CC(=O)Nc2ccccc2N1

emission maximum (in CO): 435 nm
SMILES: N#Cc1ccc(-c2nc(-c3ccccc3)c(-c3ccccc3)[nH]2)cc1

emission maximum (in CCCCCC): 404 nm
SMILES: CC(C)[Si](C#Cc1ccc(C#C[Si](C(C)C)(C(C)C)C(C)C)c2nc3c(nc12)C1c2ccccc2C3c2ccccc21)(C(C)C)C(C)C

emission maximum (in CS(C)=O): 502 nm
SMILES: Cc1cccn2c1cc1c3ccccc3nc(-c3ccco3)c12

emission maximum (in CO): 813 nm
SMILES: CS1(C)C(/C=C/C2=C(c3ccc(C(=O)O)cc3)C(=C/C=C3/N(CCCCS(=O)(=O)[O-])c4ccccc4S3(C)C)/CCC2)=[N+](CCCCS(=O)(=O)[O-])c2ccccc21

emission maximum (in CC#N): 510 nm
SMILES: N#Cc1ccc(C=C2Oc3cccc(O)c3C2=O)cc1

emission maximum (in ClC(Cl)Cl): 460 nm
SMILES: CCCCn1c(=O)c2cc3ccc4cccc5ccc(c2c1=O)c3c45

emission maximum (in ClCCl): 480 nm
SMILES: Cc1ccc(C#Cc2ccc3nc4ccc(C#Cc5ccc(C)cc5)cn4c(=O)c3c2)cc1

emission maximum (in CC#N): 409 nm
emission maximum (in CCCCCC): 337 nm
SMILES: Cc1ccc(-n2c(C)ccc2C)cc1

emission maximum (in CO): 581 nm
SMILES: COC(=O)COc1ccc(/C=C/C2=[N+]3C(=C(c4ccc(N5CCCCC5)cc4)c4c(C)cc(C)n4[B-]3(F)F)C(C)=C2)cc1

emission maximum (in ClCCl): 527 nm
SMILES: Clc1ccc2nc3cc4ccccc4cc3c(-c3ccccc3)c2c1

emission maximum (in CCO): 437 nm
SMILES: C#Cc1ccc2cc3c(C)cc(=O)oc3cc2c1

emission maximum (in CC#N): 327 nm
emission maximum (in CCCCCC): 324 nm
SMILES: COc1ccc(-n2cccc2)cc1

emission maximum (in ClC(Cl)Cl): 648 nm
SMILES: CCCN1c2ccccc2Sc2cc(/C=C\c3cc(=O)oc4cc(C)c(Cl)cc34)ccc21

emission maximum (in ClC(Cl)Cl): 565 nm
SMILES: N#Cc1nc(N(Cc2ccccc2Br)Cc2ccccc2Br)c(C#N)nc1N(Cc1ccccc1Br)Cc1ccccc1Br

emission maximum (in CO): 399 nm
SMILES: COc1ccc(-c2nc(-c3cccc(OC)c3)[nH]c2-c2ccc(OC)cc2)cc1

emission maximum (in C1CCOC1): 416 nm
emission maximum (in ClC(Cl)Cl): 434 nm
SMILES: F[Si](c1c2ccccc2cc2ccccc12)(c1c2ccccc2cc2ccccc12)c1c2ccccc2cc2ccccc12

emission maximum (in C1CCCCC1): 445 nm
emission maximum (in CC#N): 610 nm
emission maximum (in CO): 639 nm
emission maximum (in ClC(Cl)Cl): 534 nm
SMILES: CN(C)c1ccc2nc(-c3ccc(/C=N/c4ccccc4)cc3)sc2c1

emission maximum (in ClCCl): 620 nm
SMILES: COc1ccc(-c2c3cc4ccccc4cc3c(-c3ccc(OC)cc3)c3cc4ccccc4cc23)cc1

emission maximum (in ClC(Cl)Cl): 538 nm
SMILES: COc1cc(OC)c2c(c1)c1cc3oc(=O)cc(C)c3cc1c1cc(OC)cc(OC)c12

emission maximum (in ClCCl): 482 nm
SMILES: Cc1ccc2c(c1)B(c1c(C(C)C)cc(C(C)C)cc1C(C)C)c1cc(C)cc3c1N2c1ccc(C)cc1B3c1c(C(C)C)cc(C(C)C)cc1C(C)C

Second part, the compound before the results:

SMILES: CCCCC(CC)COc1cc(OCC(CC)CCCC)c2c#cc3ccc4c(c3)c3cc(c#cc5cc(c#cc6ccc7c(c6)c6cc(c#cc1c2)ccc6n7CC(CC)CCCC)c(C(CCCC)OCCC)cc5C(CCCC)OCCC)ccc3n4CC(CC)CCCC (stereo not drawn)
emission maximum (in ClCCl): 388 nm

SMILES: CC(C)(C)c1ccc2c(c1)c1cc(C(C)(C)C)ccc1n2-c1ccccc1-c1nccnc1C#N
emission maximum (in Cc1ccccc1): 490 nm
emission maximum (in c1cc(-n2c3ccccc3c3ccccc32)cc(-n2c3ccccc3c3ccccc32)c1): 483 nm

SMILES: COc1ccc(/C=C/C2=[O+][B-](F)(F)OC(/C=C/c3ccc(OC)cc3)=C2c2ccccc2)cc1
emission maximum (in CC#N): 564 nm
emission maximum (in CC(C)=O): 549 nm
emission maximum (in CCOC(C)=O): 534 nm
emission maximum (in CCOCC): 520 nm
emission maximum (in ClC(Cl)(Cl)Cl): 515 nm
emission maximum (in ClCCl): 554 nm

SMILES: CC1(C)c2ccccc2N(c2ccc(B3c4ccccc4Oc4ccccc43)cc2)c2ccccc21
emission maximum (in Cc1ccccc1): 472 nm

SMILES: c1ccc(-c2c3c(c(-c4ccccc4)c4cc5ccccc5cc24)Cc2c(c(-c4ccccc4)c4cc5ccccc5cc4c2-c2ccccc2)C3)cc1
emission maximum (in CC#N): 400 nm
emission maximum (in CCCCCC): 396 nm
emission maximum (in CO): 398 nm
emission maximum (in Cc1ccccc1): 402 nm
emission maximum (in ClCCl): 402 nm

SMILES: COc1ccc(/C=C/c2nc(/C=C/c3ccc(N(c4ccccc4)c4ccccc4)cc3)cc(/C=C/c3ccc(N(c4ccccc4)c4ccccc4)cc3)n2)cc1
emission maximum (in C1CCOC1): 515 nm
emission maximum (in CC#N): 583 nm
emission maximum (in CC(C)=O): 555 nm
emission maximum (in CCCCCCC): 461 nm
emission maximum (in CS(C)=O): 584 nm
emission maximum (in Cc1ccccc1): 480 nm
emission maximum (in ClCCl): 543 nm

SMILES: BrC1=CN2C[n+]3cc(Br)cc(Br)c3N=C2C(Br)=C1
emission maximum (in CS(C)=O): 494 nm

SMILES: CN(C)CCNc1ccc([N+](=O)[O-])cc1[N+](=O)[O-]
emission maximum (in C1CCCCC1): 368 nm
emission maximum (in C1CCOC1): 389 nm
emission maximum (in C1COCCO1): 385 nm
emission maximum (in CC#N): 399 nm
emission maximum (in CC(C)=O): 401 nm
emission maximum (in CCCCCC): 363 nm
emission maximum (in CCO): 394 nm
emission maximum (in CCOC(C)=O): 384 nm
emission maximum (in CN(C)C=O): 406 nm
emission maximum (in CO): 389 nm
emission maximum (in CS(C)=O): 417 nm
emission maximum (in Cc1ccccc1): 385 nm
emission maximum (in ClC(Cl)Cl): 389 nm
emission maximum (in ClCCl): 393 nm

SMILES: CCOC(=O)/N=c1/oc2c(OC)cccc2cc1C#N
emission maximum (in ClCCl): 465 nm

SMILES: c1ccc2cc(-n3c4ccccc4c4ccccc43)ccc2c1
emission maximum (in C1CCCCC1): 362 nm
emission maximum (in C1CCOC1): 374 nm
emission maximum (in CC#N): 388 nm
emission maximum (in CCO): 379 nm
emission maximum (in CCOC(C)=O): 372 nm
emission maximum (in CCOCC): 368 nm
emission maximum (in CO): 382 nm
emission maximum (in Cc1ccccc1): 364 nm
emission maximum (in ClC(Cl)Cl): 376 nm

SMILES: COc1ccc(-c2c3ccc([nH]3)c3nc(c(-c4ccc([N+](=O)[O-])cc4)c4ccc([nH]4)c4ccc([nH]4)c(-c4ccc(OC)cc4)c4ccc2o4)C=C3)cc1
emission maximum (in C1CCOC1): 761 nm
emission maximum (in Cc1ccccc1): 739 nm
emission maximum (in c1ccccc1): 739 nm

SMILES: CC(C)(C)c1ccc2oc(-c3ccc(-c4nc5cc(C(C)(C)C)ccc5o4)s3)nc2c1
emission maximum (in C1CCCCC1): 426 nm
emission maximum (in C1CCOC1): 432 nm
emission maximum (in CC1CCCCC1): 426 nm
emission maximum (in CC#N): 432 nm
emission maximum (in CCCCO): 434 nm
emission maximum (in CCO): 434 nm
emission maximum (in CN(C)C=O): 434 nm
emission maximum (in Cc1ccccc1): 434 nm
emission maximum (in Clc1ccccc1Cl): 437 nm
emission maximum (in c1ccccc1): 434 nm

SMILES: COc1cc(OC)c2cc(C#N)c(=N)oc2c1
emission maximum (in ClCCl): 428 nm

SMILES: Cc1ccc2c(c1)c1cc(Br)ccc1n2-c1c(C#N)c(-n2c3ccc(Br)cc3c3cc(Br)ccc32)c(-n2c3ccc(Br)cc3c3cc(Br)ccc32)c(C#N)c1-n1c2ccc(Br)cc2c2cc(Br)ccc21
emission maximum (in Cc1ccccc1): 546 nm

SMILES: c1ccc2c(c1)CC1(C2)c2cc(N3c4ccccc4Sc4ccccc43)ccc2-c2ccc(N3c4ccccc4Sc4ccccc43)cc21
emission maximum (in Cc1ccccc1): 495 nm

SMILES: CN(C)c1ccc(/C=C/c2ncccn2)cc1
emission maximum (in ClCCl): 472 nm

SMILES: CCN(CC)c1ccc2cc(/C=C(\C#N)c3nc4ccccc4s3)c(=O)oc2c1
emission maximum (in C1COCCO1): 570 nm
emission maximum (in CC#N): 596 nm
emission maximum (in CCO): 594 nm
emission maximum (in CCOC(C)=O): 576 nm
emission maximum (in CN(C)C=O): 605 nm
emission maximum (in CO): 598 nm
emission maximum (in CS(C)=O): 613 nm
emission maximum (in Cc1ccccc1): 567 nm
emission maximum (in ClCCl): 580 nm

SMILES: COc1ccc(-c2nnc(-c3cc(-c4nnc(-c5ccc(OC)cc5)o4)c(-n4c5ccccc5c5ccccc54)cc3-n3c4ccccc4c4ccccc43)o2)cc1
emission maximum (in Cc1ccccc1): 428 nm
emission maximum (in O=P(c1ccccc1)(c1ccccc1)c1ccccc1Oc1ccccc1P(=O)(c1ccccc1)c1ccccc1): 452 nm

SMILES: CC(C)(C)c1ccc2c(c1)c1cc3c4cc(C(C)(C)C)ccc4c4c5c6ccc(C(C)(C)C)cc6c6cc7c8cc(C(C)(C)C)ccc8c8c2c1c(c34)c(c78)c65
emission maximum (in CCCCCC): 679.35 nm
emission maximum (in CCOCC): 679.9 nm
emission maximum (in Cc1ccccc1): 685.4 nm

SMILES: COOCc1noc(-c2ccccc2)c1Cl
emission maximum (in C1CCCCC1): 345 nm

SMILES: CCOC(=O)c1cc(C(=O)OCC)c2ccc(C)cc2n1
emission maximum (in CCO): 422 nm

SMILES: CCCCC(CC)CN1C(=O)C2=C(c3ccc(-c4ccc(C5=C6C(C)=CC(C)=[N+]6[B-](F)(F)n6c(C)cc(C)c65)cc4)s3)N(CC(CC)CCCC)C(=O)C2=C1c1cccs1 (stereo not drawn)
emission maximum (in Cc1ccccc1): 623 nm

SMILES: CC(C)(C)c1ccc2c(c1)c1cc(C(C)(C)C)ccc1n2-c1ccc2oc3nc4oc5ccc(C(F)(F)F)cc5c4cc3c2c1
emission maximum (in C1CCCCC1): 396 nm
emission maximum (in C1CCOC1): 455 nm
emission maximum (in CC#N): 513 nm
emission maximum (in CS(C)=O): 517 nm
emission maximum (in Cc1ccccc1): 422 nm
emission maximum (in ClC(Cl)Cl): 364 nm
